{"source": "EPA's ToxRefDB 2", "key": {"[1]": {"tested_on": "rabbit", "settings": "Sub-acute repeat dose toxicity, Oral, Gavage/Intubation, dose end: 5 day, group: systemic"}, "[2]": {"tested_on": "rat", "settings": "Fertility (Segment I), Oral, Gavage/Intubation, dose end: 1 generation, group: parental"}, "[3]": {"tested_on": "rabbit", "settings": "Prenatal developmental toxicity study, new zealand white, Oral, Gavage/Intubation, dose end: 19 GD"}, "[4]": {"tested_on": "primate", "settings": "Sub-acute repeat dose toxicity, Oral, Gavage/Intubation, dose end: 28 day, group: systemic"}, "[5]": {"tested_on": "rat", "settings": "Sub-acute repeat dose toxicity; sprague dawley; Oral; Gavage/Intubation; dose end: 29 day; group: systemic; systemic / in life observation / clinical signs / salivation"}, "[6]": {"tested_on": "rat", "settings": "Prenatal developmental toxicity study, sprague dawley, Oral, Gavage/Intubation, dose end: 18 GD"}, "[7]": {"tested_on": "rat", "settings": "Sub-acute repeat dose toxicity, sprague dawley, Oral, Gavage/Intubation, dose end: 14 day, group: systemic"}, "[8]": {"tested_on": "rat", "settings": "Fertility (Segment I), Oral, Gavage/Intubation, dose end: 1 generation, group: parental", "remark": "listed apart in the source"}, "[9]": {"tested_on": "rat", "settings": "Chronic toxicity, sprague dawley, Oral, Gavage/Intubation, dose end: 180 day, group: systemic"}, "[10]": {"tested_on": "primate", "settings": "Sub-acute repeat dose toxicity, Oral, Gavage/Intubation, dose end: 10 day, group: systemic"}, "[11]": {"tested_on": "rat", "settings": "Fertility (Segment I), Oral, Gavage/Intubation, dose end: 1 generation"}, "[12]": {"tested_on": "rabbit", "settings": "Sub-acute repeat dose toxicity, Oral, Gavage/Intubation, dose end: 13 day"}, "[13]": {"tested_on": "rat", "settings": "Prenatal developmental toxicity study; sprague dawley; Oral; Gavage/Intubation; dose end: 18 GD; group: maternal; systemic / in life observation / body weight / body weight gain + systemic / in life observation / food consumption / food consumption"}, "[14]": {"tested_on": "rabbit", "settings": "Prenatal developmental toxicity study; Oral; Gavage/Intubation; dose end: 19 GD; group: maternal; reproductive / reproductive performance / aborted / aborted + systemic / in life observation / food consumption / food consumption + …"}, "[15]": {"tested_on": "rat", "settings": "Fertility (Segment I), Oral, Gavage/Intubation, dose end: 1 generation, group: parental", "remark": "listed apart in the source"}, "[16]": {"settings": "systemic / in life observation / body weight / body weight + systemic / in life observation / clinical signs / abnormal feces + systemic / …"}, "[17]": {"settings": "systemic / in life observation / clinical signs / abnormal respiratory sounds + systemic / in life observation / clinical signs / fur (…"}, "[18]": {"settings": "systemic / in life observation / clinical signs / salivation"}, "[19]": {"settings": "group: developmental, systemic / in life observation / body weight / fetal weight"}, "[20]": {"settings": "group: maternal, systemic / in life observation / body weight / body weight + systemic / in life observation / body weight / body weight gain + systemic / in…"}, "[21]": {"settings": "systemic / clinical chemistry / [other] / [other] + systemic / in life observation / clinical signs / abnormal feces + systemic / in life …"}, "[22]": {"settings": "group: developmental, developmental / developmental malformation / bone / delayed ossification + systemic / in life observation / body weight / fetal weight"}, "[23]": {"settings": "group: maternal, systemic / in life observation / clinical signs / salivation"}, "[24]": {"settings": "group: maternal, systemic / in life observation / clinical signs / salivation + systemic / in life observation / body weight / body weight gain"}, "[25]": {"settings": "systemic / in life observation / body weight / body weight gain + systemic / in life observation / clinical signs / dehydration + systemic…"}, "[26]": {"settings": "systemic / in life observation / clinical signs / fur (altered appearance) + systemic / in life observation / clinical signs / salivation"}, "[27]": {"settings": "systemic / clinical chemistry / 5' nucleotidase / 5' nucleotidase + systemic / clinical chemistry / alanine aminotransferase (alt/sgpt) / …"}, "[28]": {"settings": "systemic / in life observation / body weight / body weight gain + systemic / in life observation / food consumption / food consumption"}, "[29]": {"settings": "systemic / in life observation / clinical signs / abnormal feces + systemic / in life observation / clinical signs / salivation"}, "[30]": {"settings": "systemic / in life observation / clinical signs / abnormal feces + systemic / in life observation / clinical signs / salivation + systemic…"}, "[31]": {"settings": "group: maternal, reproductive / reproductive performance / estrous cycle / abnormal"}, "[32]": {"settings": "group: parental, systemic / in life observation / food consumption / food consumption"}, "[33]": {"settings": "group: maternal, reproductive / reproductive performance / aborted / aborted + reproductive / reproductive performance / resorptions / resorptions"}, "[34]": {"settings": "group: systemic, systemic / in life observation / body weight / body weight gain + systemic / in life observation / food consumption / food consumption"}, "[35]": {"settings": "systemic / in life observation / body weight / body weight + systemic / in life observation / food consumption / food consumption + systemic…"}}, "data": [{"smiles": "CC(C)(O)c1coc(S(=O)(=O)NC(=O)Nc2c3c(cc4c2CCC4)CCC3)c1", "values": [{"measurement": "LOAEL", "setting": "[1]; [16]", "result": "> 500", "unit": "mg/kg/day"}, {"measurement": "NEL", "setting": "[1]; [16]", "result": 50, "unit": "mg/kg/day"}, {"measurement": "NOAEL", "setting": "[1]; [16]", "result": "≥ 500", "unit": "mg/kg/day"}, {"measurement": "LEL", "setting": "[1]; systemic / in life observation / food consumption / food consumption", "result": 250, "unit": "mg/kg/day"}, {"measurement": "LOAEL", "setting": "[2]; [17]", "result": "> 500", "unit": "mg/kg/day"}, {"measurement": "NOAEL", "setting": "[2]; [17]", "result": "≥ 500", "unit": "mg/kg/day"}, {"measurement": "LEL", "setting": "[2]; [18]", "result": 25, "unit": "mg/kg/day"}, {"measurement": "NEL", "setting": "[2]; [18]", "result": "< 25", "unit": "mg/kg/day"}, {"measurement": "LEL", "setting": "[3]; [19]", "result": 250, "unit": "mg/kg/day"}, {"measurement": "LOAEL", "setting": "[3]; [19]", "result": "> 250", "unit": "mg/kg/day"}, {"measurement": "NOAEL", "setting": "[3]; [19]", "result": "≥ 250", "unit": "mg/kg/day"}, {"measurement": "LEL", "setting": "[3]; [20]", "result": 250, "unit": "mg/kg/day"}, {"measurement": "LOAEL", "setting": "[3]; [20]", "result": "> 250", "unit": "mg/kg/day"}, {"measurement": "NEL", "setting": "[3]; [20]", "result": 100, "unit": "mg/kg/day"}, {"measurement": "NOAEL", "setting": "[3]; [20]", "result": "≥ 250", "unit": "mg/kg/day"}, {"measurement": "LOAEL", "setting": "[4]; [21]", "result": "> 200", "unit": "mg/kg/day"}, {"measurement": "NEL", "setting": "[4]; [21]", "result": 2, "unit": "mg/kg/day"}, {"measurement": "NOAEL", "setting": "[4]; [21]", "result": "≥ 200", "unit": "mg/kg/day"}, {"measurement": "LEL", "setting": "[4]; systemic / in life observation / clinical signs / abnormal feces", "result": 50, "unit": "mg/kg/day"}, {"measurement": "LEL", "setting": "[5]", "result": 100, "unit": "mg/kg/day"}, {"measurement": "LOAEL", "setting": "[5]", "result": "> 500", "unit": "mg/kg/day"}, {"measurement": "NEL", "setting": "[5]", "result": 10, "unit": "mg/kg/day"}, {"measurement": "NOAEL", "setting": "[5]", "result": "≥ 500", "unit": "mg/kg/day"}, {"measurement": "LEL", "setting": "[6]; [22]", "result": 500, "unit": "mg/kg/day"}, {"measurement": "LOAEL", "setting": "[6]; [22]", "result": "> 500", "unit": "mg/kg/day"}, {"measurement": "NOAEL", "setting": "[6]; [22]", "result": "≥ 500", "unit": "mg/kg/day"}, {"measurement": "LEL", "setting": "[6]; [23]", "result": 50, "unit": "mg/kg/day"}, {"measurement": "NEL", "setting": "[6]; [23]", "result": "< 50", "unit": "mg/kg/day"}, {"measurement": "LOAEL", "setting": "[6]; [24]", "result": "> 500", "unit": "mg/kg/day"}, {"measurement": "NOAEL", "setting": "[6]; [24]", "result": "≥ 500", "unit": "mg/kg/day"}, {"measurement": "LOAEL", "setting": "[7]; [25]", "result": "> 1000", "unit": "mg/kg/day"}, {"measurement": "NOAEL", "setting": "[7]; [25]", "result": "≥ 1000", "unit": "mg/kg/day"}, {"measurement": "LEL", "setting": "[7]; [18]", "result": 100, "unit": "mg/kg/day"}, {"measurement": "NEL", "setting": "[7]; [18]", "result": "< 100", "unit": "mg/kg/day"}, {"measurement": "LOAEL", "setting": "[8]; [26]", "result": "> 500", "unit": "mg/kg/day"}, {"measurement": "NOAEL", "setting": "[8]; [26]", "result": "≥ 500", "unit": "mg/kg/day"}, {"measurement": "LEL", "setting": "[8]; [18]", "result": 25, "unit": "mg/kg/day"}, {"measurement": "NEL", "setting": "[8]; [18]", "result": "< 25", "unit": "mg/kg/day"}, {"measurement": "LOAEL", "setting": "[9]; [27]", "result": "> 500", "unit": "mg/kg/day"}, {"measurement": "NOAEL", "setting": "[9]; [27]", "result": "≥ 500", "unit": "mg/kg/day"}, {"measurement": "LEL", "setting": "[9]; [28]", "result": 25, "unit": "mg/kg/day"}, {"measurement": "NEL", "setting": "[9]; [28]", "result": "< 25", "unit": "mg/kg/day"}, {"measurement": "LEL", "setting": "[10]; [29]", "result": 10, "unit": "mg/kg/day"}, {"measurement": "NEL", "setting": "[10]; [29]", "result": "< 10", "unit": "mg/kg/day"}, {"measurement": "LOAEL", "setting": "[10]; [30]", "result": "> 200", "unit": "mg/kg/day"}, {"measurement": "NOAEL", "setting": "[10]; [30]", "result": "≥ 200", "unit": "mg/kg/day"}]}, {"smiles": "CNCc1ccc(NC(=O)c2c[nH]c3c2C(=O)CCC3)cc1", "values": [{"measurement": "LEL", "setting": "[11]; [31]", "result": 250, "unit": "mg/kg/day"}, {"measurement": "LOAEL", "setting": "[11]; [31]", "result": "> 1000", "unit": "mg/kg/day"}, {"measurement": "NEL", "setting": "[11]; [31]", "result": 25, "unit": "mg/kg/day"}, {"measurement": "NOAEL", "setting": "[11]; [31]", "result": "≥ 1000", "unit": "mg/kg/day"}, {"measurement": "LEL", "setting": "[11]; [32]", "result": 1000, "unit": "mg/kg/day"}, {"measurement": "LOAEL", "setting": "[11]; [32]", "result": "> 1000", "unit": "mg/kg/day"}, {"measurement": "NEL", "setting": "[11]; [32]", "result": 250, "unit": "mg/kg/day"}, {"measurement": "NOAEL", "setting": "[11]; [32]", "result": "≥ 1000", "unit": "mg/kg/day"}, {"measurement": "LEL", "setting": "[12]; [33]", "result": 300, "unit": "mg/kg/day"}, {"measurement": "LOAEL", "setting": "[12]; [33]", "result": "> 300", "unit": "mg/kg/day"}, {"measurement": "NEL", "setting": "[12]; [33]", "result": 150, "unit": "mg/kg/day"}, {"measurement": "NOAEL", "setting": "[12]; [33]", "result": "≥ 300", "unit": "mg/kg/day"}, {"measurement": "LEL", "setting": "[12]; [34]", "result": 300, "unit": "mg/kg/day"}, {"measurement": "LOAEL", "setting": "[12]; [34]", "result": "> 300", "unit": "mg/kg/day"}, {"measurement": "NEL", "setting": "[12]; [34]", "result": 150, "unit": "mg/kg/day"}, {"measurement": "NOAEL", "setting": "[12]; [34]", "result": "≥ 300", "unit": "mg/kg/day"}, {"measurement": "LEL", "setting": "[13]", "result": 250, "unit": "mg/kg/day"}, {"measurement": "LOAEL", "setting": "[13]", "result": "> 1000", "unit": "mg/kg/day"}, {"measurement": "NEL", "setting": "[13]", "result": 25, "unit": "mg/kg/day"}, {"measurement": "NOAEL", "setting": "[13]", "result": "≥ 1000", "unit": "mg/kg/day"}, {"measurement": "LEL", "setting": "[14]", "result": 300, "unit": "mg/kg/day"}, {"measurement": "LOAEL", "setting": "[14]", "result": "> 300", "unit": "mg/kg/day"}, {"measurement": "NEL", "setting": "[14]", "result": 100, "unit": "mg/kg/day"}, {"measurement": "NOAEL", "setting": "[14]", "result": "≥ 300", "unit": "mg/kg/day"}, {"measurement": "LOAEL", "setting": "[15]; [35]", "result": "> 1000", "unit": "mg/kg/day"}, {"measurement": "NEL", "setting": "[15]; [35]", "result": 25, "unit": "mg/kg/day"}, {"measurement": "NOAEL", "setting": "[15]; [35]", "result": "≥ 1000", "unit": "mg/kg/day"}, {"measurement": "LEL", "setting": "[15]; systemic / in life observation / body weight / body weight + systemic / pathology gross / intestine large / dilatation", "result": 250, "unit": "mg/kg/day"}]}]}
